Data reported in article PMC8694143 (Microbiology Spectrum, 2021).
≈ marks a conversion by molar mass, not a printed value. Non-standard residues stand in square brackets, D forms with d. Residues, ends and D or L forms follow the SMILES beside them. *: point of attachment. 5FAM = O=C1OC2(c3ccc(O)cc3Oc3cc(O)ccc32)c2ccc(C(=O)*)cc21

What was measured:
[1] = Circular dichroism spectroscopy; format: physicochemical; conditions: CD, 50% TFE (vol/vol), peptide 0.2 mg/mL, room temperature
Method: Peptides were dissolved in ultrapure water or 50% TFE (vol/vol) at a concentration of 0.2 mg/mL for spectroscopy. Spectra of samples in a 1 mm pathlength quartz cuvette were recorded from 180 to 260 nm at 0.5 nm steps using an Applied Photophysics Chirascan Plus CD spectrophotometer operating at room temperature.

[2] = tested on: S. aureus ATCC 29213; assay: MIC determination in broth; format: cell-based, Staphylococcus aureus; conditions: STIP3 variants, highest conc. tested 100 μg/mL; cation-adjusted MH broth, ~10^5 CFU/mL, 2-fold dilution series, 37°C, 16 h
Method: (§1) M. luteus ATCC 4698, S. aureus ATCC 29213, a panel of 7 MRSA (ATCC MP-2) strains, which includes ATCC BAA-41, BAA-42, BAA-44, BAA-1683, BAA-2094, BAA-2313, and 33592, and a series of additional bacterial isolates from human and veterinary cases were used in this study (Table S6). Bacterial strains were routinely grown in lysogeny broth (LB: 10 g/L tryptone, 5 g/L yeast extract, 10 g/L NaCl) at 30°C (M. luteus) or 37°C (Staphylococcus spp.) prior to use in specific experiments described below.
(§2) The MICs were measured for bioactive peptides identified from the initial screen. Cation-adjusted Mueller-Hinton (MH) broth was used as the growth medium for MIC determination experiments. Bacterial cultures were diluted to an OD of 5 × 10^−4 (∼10^5 CFU/mL) in 200 μL MH broth mixed with peptides in a 2-fold dilution series arrayed in 96-well plates. Plates were incubated without shaking at 30 or 37°C depending on the organism.

[3] = tested on: MRSA ATCC 33592; assay: MIC determination in broth; format: cell-based, Staphylococcus aureus; conditions: for Increase of the MIC relative to STIP3-29: D-Lys substituted variants; for MIC (μg/mL) for MRSA ATCC 33592: Table 1 and text; for MIC (μg/mL) for MRSA ATCC 33592 / MIC, S. aureus ATCC 33592 (SCCmec III): cation-adjusted MH broth, ~10^5 CFU/mL, 37°C, 16 h; for MIC, S. aureus ATCC 33592 (SCCmec III): Table S5, STIP3 variants, highest conc. tested 100 μg/mL, 2-fold dilution series
Method: as §1, §2

SMILES | α-Helical content (%) [1] [%] | MIC, S. aureus ATCC 29213 [2] | Increase of the MIC relative to STIP3-29 [3] | MIC (μg/mL) for MRSA ATCC 33592 [3] [µg/mL] | MIC, S. aureus ATCC 33592 (SCCmec III) [3]
CC[C@@H](C)[C@@H](NC(=O)[C@@H](Cc1c[nH]c2ccccc12)NC(=O)[C@@H](CCCCN)NC(=O)[C@H](NC(=O)[C@@H](CC(C)C)NC(=O)CNC(=O)CNC(=O)[C@H](NC(=O)[C@H](NC(=O)c1ccc2c(c1)C(=O)OC21c2ccc(O)cc2Oc2cc(O)ccc21)[C@H](C)O)C(C)C)C(C)C)C(=O)N[C@H](CC(C)C)C(=O)N[C@H](CCCCN)C(=O)N[C@@H](C(=O)N[C@@H](C(=O)N[C@H](CCCCN)C(=O)N[C@H](CCCCN)C(=O)N[C@H](Cc1ccccc1)C(=O)N[C@H](C)C(N)=O)C(C)C)[C@H](C)O [FAM-D-STIP3-29] (5FAM-[dT][dV]GG[dL][dV][dK][dW][dI][dL][dK][dT][dV][dK][dK][dF][dA]-NH2; C-terminus assumed) | 55 | – | – | – | –
CC[C@H](C)[C@H](NC(=O)[C@H](Cc1c[nH]c2ccccc12)NC(=O)[C@H](CCCCN)NC(=O)[C@@H](NC(=O)[C@H](CC(C)C)NC(=O)CNC(=O)CNC(=O)[C@@H](NC(=O)[C@@H](NC(=O)c1ccc2c(c1)C(=O)OC21c2ccc(O)cc2Oc2cc(O)ccc21)[C@@H](C)O)C(C)C)C(C)C)C(=O)N[C@@H](CC(C)C)C(=O)N[C@@H](CCCCN)C(=O)N[C@H](C(=O)N[C@H](C(=O)N[C@@H](CCCCN)C(=O)N[C@@H](CCCCN)C(=O)N[C@@H](Cc1ccccc1)C(=O)N[C@@H](C)C(N)=O)C(C)C)[C@@H](C)O [FAM-L-STIP3-29] (5FAM-TVGGLVKWILKTVKKFA-NH2; C-terminus assumed) | 72 | – | – | – | –
CC[C@H](C)[C@H](NC(=O)[C@H](Cc1c[nH]c2ccccc12)NC(=O)[C@H](CCCCN)NC(=O)[C@@H](NC(=O)[C@H](CC(C)C)NC(=O)CNC(=O)CNC(=O)[C@@H](NC(=O)[C@@H](N)[C@@H](C)O)C(C)C)C(C)C)C(=O)N[C@@H](CC(C)C)C(=O)N[C@H](CCCCN)C(=O)N[C@H](C(=O)N[C@H](C(=O)N[C@@H](CCCCN)C(=O)N[C@@H](CCCCN)C(=O)N[C@@H](Cc1ccccc1)C(=O)N[C@@H](C)C(N)=O)C(C)C)[C@@H](C)O [STIP3-29-D1] (H-TVGGLVKWIL[dK]TVKKFA-NH2; N-terminus assumed) | 51 | 12.5 µg/mL (≈ 6.62 µM) | 4 fold | 25 | 25 µg/mL (≈ 13.2 µM)
CC[C@H](C)[C@H](NC(=O)[C@H](Cc1c[nH]c2ccccc12)NC(=O)[C@@H](CCCCN)NC(=O)[C@@H](NC(=O)[C@H](CC(C)C)NC(=O)CNC(=O)CNC(=O)[C@@H](NC(=O)[C@@H](N)[C@@H](C)O)C(C)C)C(C)C)C(=O)N[C@@H](CC(C)C)C(=O)N[C@H](CCCCN)C(=O)N[C@H](C(=O)N[C@H](C(=O)N[C@@H](CCCCN)C(=O)N[C@H](CCCCN)C(=O)N[C@@H](Cc1ccccc1)C(=O)N[C@@H](C)C(N)=O)C(C)C)[C@@H](C)O [STIP3-29-D3] (H-TVGGLV[dK]WIL[dK]TVK[dK]FA-NH2; N-terminus assumed) | 32 | > (The > symbol indicates that no inhibition was observed at 100 μg/mL for the STIP3 variants) | inactivation | >100 | > (The > symbol indicates that no inhibition was observed at 100 μg/mL for the STIP3 variants)
